The nature of series [1]: Gravimetric vapor sorption (GVS). Format: physicochemical. The settings on record: for XRPD post GVS / XRPD after GVS: solid form after the sorption cycle. How it is done:
Sorption isotherms were obtained using a SMS DVS Intrinsic moisture sorption analyzer, controlled by DVS Intrinsic Control software v1.0.0.30. The sample temperature was maintained at 25° C. by the instrument controls. The humidity was controlled by mixing streams of dry and wet nitrogen, with a total flow rate of 200 mL/min. The relative humidity (RH) was measured by a calibrated Rotronic probe (dynamic range of 1.0-100% RH), located near the sample. The weight change, (mass relaxation) of the sample as a function of % RH was constantly monitored by the microbalance (accuracy ±0.005 mg). Typically 5-20 mg of sample was placed in a tared mesh stainless steel basket under ambient conditions. The sample was loaded and unloaded at 40% RH and 25° C. (typical room conditions). A moisture sorption isotherm was performed as outlined below (2 scans giving 1 complete cycle). The standard isotherm was performed at 25° C. at 10% RH intervals over a 0-90% RH range. Data analysis was undertaken in Microsoft Excel using DVS Analysis Suite v6.0.0.7.

Series [2] can be described thus: Solid-state storage stability at elevated temperature and humidity (XRPD). Format: physicochemical. How it is done: One hundred milligrams of the amorphous form of the compound of Formula I was solubilized into 5 volumes of ethyl acetate or acetone under constant stirring at respectively 70° C. or 50° C. (experiment performed in duplicate). […] Systems were then allowed to equilibrate at initial temperature for 1 hour (crashing out reported in all cases). Some samples were then filtered at respectively 70° C. or 50° C. Other samples were cooled to 0° C. at 0.1° C./min. Suspensions were observed after 1 hour slurrying at 0° C. Ten volumes of solvent were added to each sample and the systems were allowed to equilibrate at 0° C. for 1 hour. One aliquot of each condition was filtered under reduced pressure, dried for 16 hours at 70° C. and 3 mbar and characterized by XRPD, ^1H-NMR and HPLC (Table 6).
Ca. 0.5 g of the compound of Formula I was weighed in a 10 mL vial, 15 vol. of IPAc were added. The suspension was heated to 50° C., 2.5 eq of acid added (from a stock solution 1 M in THF) and then cooled to 5° C. at 0.1° C. min^−1. Suspension was filtered with vacuum and allowed to dry under these conditions for 4 h. Samples were analyzed by XRPD to check the conversion and then they were dried under vacuum at 30° C. for 20 h. […] The suspension was heated to 50° C. and additional 0.5 eq of acid added from a stock solution 1 M in THF. The suspension was then cooled to 5° C. at 0.1° C. min^−1. The solid was filtered with vacuum and allowed to dry under these conditions for 4 h. The solid was analyzed by XRPD to check the conversion and then it was dried under vacuum at 30° C. for 20 h.

The nature of series [3]: Thermodynamic aqueous solubility. The format is physicochemical. The note with it: for thermodynamic aqueous solubility, rank order: solubility decreases in the printed order. How it is done:
The suspension was equilibrated at 25° C. for 24 hours then the pH was measured. The suspension was then filtered through a glass fibre C filter. The filtrate was then diluted by an appropriate factor, e.g. 101. Quantitation was by HPLC with reference to a standard solution of approximately 0.25 mg/mL in DMSO. Different volumes of the standard, diluted and undiluted sample solutions were injected.

A short description of series [4]: Absolute oral bioavailability in rats. The settings on record: rat, in vivo, dosed as a solution in 0.5% TPGS/37.5% PEG200/60% PBS, 10 mg/kg PO and 2 mg/kg IV. How it is done: The desired route of administration for the compound of Formula I is oral. The absolute oral bioavailability in rats was determined to be approximately 4-8% when dosed as a solution in 0.5% TPGS/37.5% PEG200/60% PBS. The doses were 10 mg/kg PO and 2 mg/kg IV.

The next series concerns Caco-2 cell model. Briefly: Permeability in the 3-day Caco-2 cell model. The format is in vitro ADME. (In general: Passage across Caco-2 layers is used to estimate intestinal permeability.)
The target of the next series is T1, P-gp (Homo sapiens, UniProt P08183).
T1 construct: endogenous in cells; host or cells: Caco-2
Briefly: P-gp substrate assessment (BA/AB transport ratio, with or without cyclosporine A). The format is in vitro ADME.

Series [5] can be described thus: Half-life in human hepatocytes. Format: in vitro ADME. How it is done:
Furthermore, the half-life in human hepatocytes was in the mid/long range of >8 hours for the compound of Formula I. Consequently, rapid hepatic clearance is unlikely to contribute to low oral bioavailability.

T1 sequence (P08183 whole entry): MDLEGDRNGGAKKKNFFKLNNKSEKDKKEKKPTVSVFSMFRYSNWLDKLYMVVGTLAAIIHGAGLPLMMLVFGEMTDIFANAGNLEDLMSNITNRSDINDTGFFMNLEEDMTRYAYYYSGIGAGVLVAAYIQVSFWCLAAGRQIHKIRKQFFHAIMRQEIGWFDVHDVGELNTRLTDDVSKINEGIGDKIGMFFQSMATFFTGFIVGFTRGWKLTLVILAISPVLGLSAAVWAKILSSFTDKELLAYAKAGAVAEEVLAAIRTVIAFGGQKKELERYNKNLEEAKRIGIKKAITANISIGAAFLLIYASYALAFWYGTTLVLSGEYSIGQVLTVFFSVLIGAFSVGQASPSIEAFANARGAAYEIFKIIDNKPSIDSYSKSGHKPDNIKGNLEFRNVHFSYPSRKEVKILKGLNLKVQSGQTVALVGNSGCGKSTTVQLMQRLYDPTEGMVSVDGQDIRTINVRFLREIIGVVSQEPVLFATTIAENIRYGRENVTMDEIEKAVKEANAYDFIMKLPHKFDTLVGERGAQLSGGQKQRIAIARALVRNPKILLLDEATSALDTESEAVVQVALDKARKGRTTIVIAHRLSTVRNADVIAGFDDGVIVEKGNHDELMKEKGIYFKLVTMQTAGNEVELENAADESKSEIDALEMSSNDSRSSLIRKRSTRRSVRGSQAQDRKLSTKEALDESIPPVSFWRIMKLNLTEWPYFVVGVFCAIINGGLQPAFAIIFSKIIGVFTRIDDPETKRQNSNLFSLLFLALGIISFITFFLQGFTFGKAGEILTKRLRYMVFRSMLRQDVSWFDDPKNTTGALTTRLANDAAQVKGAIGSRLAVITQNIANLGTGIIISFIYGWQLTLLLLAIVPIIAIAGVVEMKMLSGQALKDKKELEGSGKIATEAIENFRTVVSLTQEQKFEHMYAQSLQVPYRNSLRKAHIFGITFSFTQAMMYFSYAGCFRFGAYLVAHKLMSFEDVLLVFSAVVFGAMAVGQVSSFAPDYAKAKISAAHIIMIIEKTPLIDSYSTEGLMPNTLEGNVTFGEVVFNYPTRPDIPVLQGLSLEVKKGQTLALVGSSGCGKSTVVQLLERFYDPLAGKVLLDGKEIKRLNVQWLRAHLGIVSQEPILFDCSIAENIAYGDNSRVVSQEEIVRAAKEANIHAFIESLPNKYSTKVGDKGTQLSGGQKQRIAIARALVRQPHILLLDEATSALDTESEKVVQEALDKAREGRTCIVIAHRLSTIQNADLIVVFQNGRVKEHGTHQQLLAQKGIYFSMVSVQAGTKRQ

In the case of H2SO4, in series [1], the “GVS wt uptake between 0-90% RH” value is “RH 25.5% wt” and the “XRPD post GVS / XRPD after GVS” value is “Amorphous”. Also, the “GVS wt uptake between 40-75% RH” value in series [1] (40-75% RH) was found to be 6.12% wt uptake. Also, in series [1] (75-90% RH), the “GVS wt uptake between 75-90% RH” value was “RH 14.5% wt”. For the same compound, the “Stability 25° C./92% RH (XRPD after 7 days)” value in series [2] (25° C./92% RH) was “Amorphous”. Also, the “Stability 40° C./75% RH (XRPD after 7 days)” value in series [2] (40° C./75% RH) is listed as “Amorphous”.
Regarding `COC(=O)N[C@H](C(=O)N1CCC[C@H]1c1nc2ccc(-c3csc4c(-c5ccc(-c6cnc([C@@H]7CCCN7C(=O)[C@H](NC(=O)OC)c7ccccc7)[nH]6)cc5)csc34)cc2[nH]1)C(C)C` [Form A, methyl N-{(1R)-2-[(2S)-2-{5-[4-(6-{2-[(2S)-1-{(2S)-2-[(methoxycarbonyl)amino]-3-methylbutanoyl}pyrrolidin-2-yl]-3H-benzimidazol-5-yl}thieno[3,2-b]thiophen-3-yl)phenyl]-1H-imidazol-2-yl}pyrrolidin-1-yl]-2-oxo-1-phenylethyl}carbamate], the “GVS weight uptake at 90% RH” value in series [1] (25° C., 90% RH) came out at 1.16 wt %. In addition, the “XRPD post GVS / XRPD after GVS” value in series [1] is “Form A”. Also, the “Stability 25° C./92% RH (XRPD after 11 days)” value in series [2] (25° C./92% RH, 11 days) is recorded as “Form A”. Further, the “Stability 40° C./75% RH (XRPD after 11 days)” value in series [2] (40° C./75% RH, 11 days) is reported as “Form A”. Further, the “effect of GVS analysis and storage at elevated temperature and humidity on the crystals” value in series [2] (eleven days, recrystallized 100 mg scale samples) is “remained as Form A”.
Regarding Tosylate, the “pH of the equilibrated suspension in the solubility determination” value in series [3] (measured after equilibration at 25° C. for 24 hours) worked out at 1.52. In series [3] (scaled-up amorphous salts, final pH printed in the same cell), the “Aqueous Solubility” value amounted to 0.00 mgmL^−1. In addition, in series [3], the “thermodynamic aqueous solubility, rank order” value was “HCl>H2SO4>tosylate=free base form”. Moreover, in series [1], the “GVS wt uptake between 0-90% RH” value amounted to 9.5% wt uptake and the “XRPD post GVS / XRPD after GVS” value is “Amorphous”. Also, in series [2] (25° C./92% RH), the “Stability 25° C./92% RH (XRPD after 7 days)” value was “Amorphous”. For the same compound, the “Stability 40° C./75% RH (XRPD after 7 days)” value in series [2] (40° C./75% RH) is given as “Amorphous”.
In general, bioavailability refers to dose-corrected exposure relative to a reference, in per cent. Low values mean poor availability, high ones good availability. Usually solubility stands for the dissolved amount per volume that the medium holds. A low value points to a poorly soluble substance. The term efflux ratio denotes the permeability from basolateral to apical divided by that in the opposite direction, in the common usage. The term half-life denotes the time in which the quantity being followed falls by half. A high value points to slow loss. As for `COC(=O)N[C@H](C(=O)N1CCC[C@H]1c1nc2ccc(-c3csc4c(-c5ccc(-c6cnc([C@@H]7CCCN7C(=O)[C@H](NC(=O)OC)c7ccccc7)[nH]6)cc5)csc34)cc2[nH]1)C(C)C` [compound of Formula I, methyl N-{(1R)-2-[(2S)-2-{5-[4-(6-{2-[(2S)-1-{(2S)-2-[(methoxycarbonyl)amino]-3-methylbutanoyl}pyrrolidin-2-yl]-3H-benzimidazol-5-yl}thieno[3,2-b]thiophen-3-yl)phenyl]-1H-imidazol-2-yl}pyrrolidin-1-yl]-2-oxo-1-phenylethyl}carbamate], in series [4], the bioavailability is 4 to 8%. Moreover, the BCS classification entry in series [3] (based on poor aqueous solubility and low Caco-2 permeability) is reported as “BCS Class IV”. The compound also displayed a solubility in series [3] (poor aqueous solubility, basis of BCS classification) of less than 500 µg/mL. The “thermodynamic aqueous solubility, rank order” value in series [3] was “HCl>H2SO4>tosylate=free base form”. Further, the permeability entry in the series on Caco-2 cell model is “low permeability”. Also, the “effect from addition of P-gp inhibitor cyclosporine A” value on P-gp is “absence of effect”. Further, the P-gp substrate entry at P-gp (deduced from BA/AB transport ratio and cyclosporine A addition) is “not a P-gp substrate”. The efflux ratio on P-gp (human, Caco-2) is less than 1. The compound also registered a half-life in series [5] of more than 8 h.

The values are drawn from US20170066779A1, “SOLID FORMS OF A FLAVIVIRIDAE VIRUS INHIBITOR COMPOUND AND SALTS THEREOF” (IDENIX Pharmaceuticals LLC, priority 2014, published 2017).
